Values quoted from earlier work as cited in patent US20240050735A1, “SYSTEMS AND METHODS FOR TREATING AND INHIBITING WOUND INFECTIONS” (priority 2020, published 2024).
Structures can show the parent of a compound that is named as a salt.

Tests used:
[1] = test system: S. aureus persister cells; conditions: even at 100×MIC; cited from earlier work
S. aureus biofilms = conditions: cited from earlier work
[2] = 0.3 mA cm^−2 for 4 hours; cited from earlier work

CN[C@H](CC(C)C)C(=O)N[C@H]1C(=O)N[C@@H](CC(N)=O)C(=O)N[C@H]2C(=O)N[C@H]3C(=O)N[C@H](C(=O)N[C@H](C(=O)O)c4cc(O)cc(O)c4-c4cc3ccc4O)[C@H](O)c3ccc(c(Cl)c3)Oc3cc2cc(c3O[C@@H]2O[C@H](CO)[C@@H](O)[C@H](O)[C@H]2O[C@H]2C[C@](C)(N)[C@H](O)[C@H](C)O2)Oc2ccc(cc2Cl)[C@H]1O [VAN, Vancomycin hydrochloride]
killing of S. aureus persister cells [1]: not capable of killing
biofilm bacterial density reduction (S. aureus biofilms; 2 mA (0.17 mA cm^−2) for 24 hours with 32 μg mL^−1 vancomycin): 1 log10 scale
antibacterial effect (S. aureus biofilms; vancomycin alone): no antibacterial effect
amount delivered into the epidermis by iontophoresis vs passive diffusion [2]: 2.1 times
